For 33 molecules, EC50, IC50 and AC50 results are on record in ChEMBL document CHEMBL1201862, “PubChem BioAssay data set” (2004).

SMILES strings stand for the structures. Active and inactive are the calls of the source. Rule as the data show it, for most assays here: actives have a measured EC50 and inactives only a lower limit.

Assay [1] has as its target T1, RNA-binding protein pos-1 (Caenorhabditis elegans, UniProt G5EF15).
T1 sequence (G5EF15 whole entry): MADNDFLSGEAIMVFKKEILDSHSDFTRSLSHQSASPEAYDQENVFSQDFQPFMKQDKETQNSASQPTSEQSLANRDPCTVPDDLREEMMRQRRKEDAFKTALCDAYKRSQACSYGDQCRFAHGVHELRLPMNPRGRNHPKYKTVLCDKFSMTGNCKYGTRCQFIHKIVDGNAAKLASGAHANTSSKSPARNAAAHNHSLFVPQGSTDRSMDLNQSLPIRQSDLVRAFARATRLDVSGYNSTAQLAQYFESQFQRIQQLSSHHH
The assay can be described thus: inhibitors of POS-1/mex-3 RNA binding, dose response, biochemical, fluorescence polarization (AID 1964).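 Also: purified POS-1 fused to maltose binding protein made in E. coli; potency of compounds blocking POS-1 binding to fluorescent RNA.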

Assay [2] deals with Streptococcus sp. 'group A'. The assay can be described thus: growth inhibition of control SK(-) GAS strain, dose response, counter-screen for streptokinase expression inhibitor project, luminescence, kanamycin, BacTiterGlo, confirmation (AID 1900). Format: functional, organism-based.
Assay [3] deals with T2, Zinc finger protein mex-5 (Caenorhabditis elegans, UniProt Q9XUB2).
T2 sequence (Q9XUB2 whole entry): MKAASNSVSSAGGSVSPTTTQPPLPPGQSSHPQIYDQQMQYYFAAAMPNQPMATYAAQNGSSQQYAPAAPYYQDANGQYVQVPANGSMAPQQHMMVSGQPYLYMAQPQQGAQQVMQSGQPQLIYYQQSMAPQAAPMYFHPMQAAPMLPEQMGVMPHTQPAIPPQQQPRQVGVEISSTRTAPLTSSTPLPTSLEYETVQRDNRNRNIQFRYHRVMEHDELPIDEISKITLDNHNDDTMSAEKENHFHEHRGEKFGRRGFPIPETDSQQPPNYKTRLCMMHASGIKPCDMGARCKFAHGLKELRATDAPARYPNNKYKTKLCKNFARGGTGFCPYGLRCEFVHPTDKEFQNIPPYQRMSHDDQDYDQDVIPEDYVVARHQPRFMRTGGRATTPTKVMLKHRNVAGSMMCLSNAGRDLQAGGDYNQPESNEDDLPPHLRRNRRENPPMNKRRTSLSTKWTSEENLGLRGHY
The assay can be described thus: MEX-5/TCR-2 RNA interaction inhibitors, dose response, biochemical, C. elegans, fluorescence polarization (AID 1960). (Polarisation of emitted light reports the rotation of a fluorescent probe.)

The target of assay [4] is T3, Streptokinase A (Streptococcus pyogenes serotype M1, UniProt P10520).
T3 sequence (P10520 whole entry): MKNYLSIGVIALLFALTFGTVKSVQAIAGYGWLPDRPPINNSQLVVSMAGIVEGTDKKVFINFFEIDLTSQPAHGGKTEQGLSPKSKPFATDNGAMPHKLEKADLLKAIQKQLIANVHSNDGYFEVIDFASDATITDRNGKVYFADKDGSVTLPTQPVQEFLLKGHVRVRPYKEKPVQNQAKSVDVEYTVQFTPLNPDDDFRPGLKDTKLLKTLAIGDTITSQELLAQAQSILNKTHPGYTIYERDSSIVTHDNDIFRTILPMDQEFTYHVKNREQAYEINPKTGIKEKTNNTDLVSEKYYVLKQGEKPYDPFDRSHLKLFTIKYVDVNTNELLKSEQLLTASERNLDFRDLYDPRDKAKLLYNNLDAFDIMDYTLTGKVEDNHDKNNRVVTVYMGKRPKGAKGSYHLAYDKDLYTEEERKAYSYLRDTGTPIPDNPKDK
The assay can be described thus: S. pyogenes streptokinase expression inhibitors, potency, dose response, plasminogen activation absorbance, OD405 (AID 1914).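 Also: secreted streptokinase activity via plasminogen activation per viability signal from cell pellet.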 Type of assay: functional, Streptococcus pyogenes M1 GAS.

Assay [5] concerns Streptococcus. The assay can be described thus: Group A Streptococcus viability loss, dose response, counter-screen for streptokinase expression inhibitor project, luminescence, BacTiterGlo (AID 1915).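 Also: potency for reduction of bacterial viability or growth.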 Format: functional, organism-based.
The target in assay [6] is T4, Corticotropin-releasing factor receptor 2/Corticotropin-releasing factor-binding protein (Homo sapiens, UniProt P24387+Q13324).
T4 sequence (Q13324 whole entry): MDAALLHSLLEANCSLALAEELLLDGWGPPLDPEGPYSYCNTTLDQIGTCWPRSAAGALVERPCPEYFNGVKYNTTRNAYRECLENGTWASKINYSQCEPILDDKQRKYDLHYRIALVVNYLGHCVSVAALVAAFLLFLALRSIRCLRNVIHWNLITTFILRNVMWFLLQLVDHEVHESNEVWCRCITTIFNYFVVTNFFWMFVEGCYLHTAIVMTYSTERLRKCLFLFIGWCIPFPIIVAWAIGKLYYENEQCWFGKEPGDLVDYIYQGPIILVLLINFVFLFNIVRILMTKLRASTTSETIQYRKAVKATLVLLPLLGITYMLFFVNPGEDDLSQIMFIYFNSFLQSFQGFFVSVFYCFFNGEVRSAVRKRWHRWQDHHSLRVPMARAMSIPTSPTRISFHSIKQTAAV
T4 sequence (P24387 whole entry): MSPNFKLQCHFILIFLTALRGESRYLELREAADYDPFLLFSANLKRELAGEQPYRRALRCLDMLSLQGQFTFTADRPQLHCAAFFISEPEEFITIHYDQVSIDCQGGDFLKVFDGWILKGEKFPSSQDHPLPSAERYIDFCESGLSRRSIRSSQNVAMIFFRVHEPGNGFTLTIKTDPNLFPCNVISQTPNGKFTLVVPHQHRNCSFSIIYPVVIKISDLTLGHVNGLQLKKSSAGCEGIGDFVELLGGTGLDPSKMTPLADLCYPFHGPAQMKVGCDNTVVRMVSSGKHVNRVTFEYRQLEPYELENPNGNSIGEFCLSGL
Nature of the assay: Dose Response confirmation of uHTS hits for small molecule antagonists of the CRF-binding protein and CRF-R2 receptor complex. Format: functional. Conditions: read-out: IC50_Mean.

The target of assay [7] is T4, Corticotropin-releasing factor receptor 2/Corticotropin-releasing factor-binding protein. The assay can be described thus: activators of CRF receptor 2 with binding protein – uHTS hits, confirmation (AID 602473). Format: functional. Conditions: read-out: EC50_Mean.
Assay [8] deals with H4. The assay can be described thus: Luminescence Cell-Based Dose Response HTS to Identify Activators of 5'UTR Stem-Loop Driven Prion Protein mRNA Translation in H4 Neuroglioblastoma Cells. [Related pubchem assays: 1829 (Project Summary), 1814 (Primary HTS)]. Type of assay: functional. Conditions: Homo sapiens.
Assay [9] in a line: NIH-3T3 fibroblast cytotoxicity, dose response, cytotoxicity control, cell-based, fluorescence, Alamar Blue, secondary assay (AID 2327).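 Also: NIH-3T3 mouse fibroblasts cultured with fluconazole at 8 µg/mL.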 Format: functional.
The nature of assay [10]: C. albicans growth with fluconazole, confirmation, fluorescence, retest (AID 2467). Format: functional, cell-based.
A short description of assay [11]: Luminescence Cell-Based Dose Retest to Confirm Inhibitors of Cancer Stem Cells. [Related pubchem assays (depositor defined):AID2717, AID2721]. Type of assay: functional. Conditions: Homo sapiens.
Assay [12] is described as follows: Luminescence Cell-Based Dose Response HTS to Identify Activators of Luciferase Translation or Activity in H4 […] Cells. [Related pubchem assays: 1829 (Project Summary), 1814 (Primary HTS)]. Format: functional.
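For AC50 in this document: cells exposed to compound for roughly 70 hours or longer before luminescence read.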

With `COc1ccccc1Oc1c[nH]nc1-c1ccc(OCC(=O)NN)cc1O`, the EC50 in [1] was > 300 µM (not active); in assay [2], > 150 µM (not active); in assay [3], 120 µM (active); in assay [4], > 150 µM (not active); in assay [5] it was > 150 µM (not active).

As to `CC(C)c1ccc(/C=N/NC(=O)c2cc(-c3cccc([N+](=O)[O-])c3)[nH]n2)cc1`, the IC50 in [6] is > 47.1 µM (inactive). The EC50 in [7] was > 53 µM (inactive).

Take `O=C1OCc2cc(-n3cccc3)ccc21`: the EC50 in assay [1] and in assay [3] was > 300 µM (not active) in each case.

For the molecule `CSc1nc2cc(Cl)ccc2s1`, the IC50 in assay [6] was > 47.1 µM (inactive). Further, in [7], the EC50 is > 53 µM (inactive).

`COC(=O)c1ccc(NC(=O)COC(=O)CSc2nc(C)cc(C)n2)cc1`: in [6], the IC50 is > 47.1 µM (inactive). Also, the EC50 in assay [7] is > 53 µM (inactive).

As to `Cc1cc(C)cc(N2C(=O)/C(=C/Nc3ccc(N4CCOCC4)cc3)C(=O)NC2=S)c1`, the EC50 in assay [1] is 7.92 µM (active); in assay [3], 5.42 µM (inconclusive).

With `CC1(OC(=O)C2CCCC2)C(=O)C=C2C=C(c3ccsc3)OC=C2C1=O` (centres undefined), the EC50 in assay [1] was 47.8 µM (active); in assay [3], 37.1 µM (active).

As to `CC1CCN(C(=O)C2CCN(S(=O)(=O)c3cccnc3)CC2)CC1`, in assay [6], the IC50 is > 47.1 µM (inactive). Moreover, the EC50 in [7] is > 53 µM (inactive).

Regarding `Cc1ccc(C(=O)Nc2nc3ccccc3n2CCN2CCCC2)cc1`, the EC50 in assay [8] is 10.9 µM (active).

Take `O[C@@H]1CCCN2CCc3c([nH]c4ccccc34)[C@H]12`: the EC50 in assay [2], in [4] and in [5] was > 150 µM (not active) each time.

Turning to `Nc1nc(CN2CCC(Cc3ccccc3)CC2)nc(Nc2ccccc2)n1`, the EC50 in assay [2] was 14.8 µM (active); in assay [4], > 150 µM (not active); in assay [5] it was > 150 µM (not active).

For the molecule `C=C(C)CSc1nc2c(cc1C#N)CCC2`, in assay [6], the IC50 was > 47.1 µM (inactive). Also, the EC50 in assay [7] is > 53 µM (inactive).

In the case of `Cc1ccn(C(=O)c2ccc(NC(=O)C3CCCCC3)cc2)n1`, in [6], the IC50 is > 47.1 µM (inactive). Besides, the EC50 in assay [7] is > 53 µM (inactive).

Consider `O=C(ONC1=NCCCCC1)c1cccc([N+](=O)[O-])c1`, for which the EC50 is > 150 µM (inactive) in [9] and 2.12 µM (active) in assay [10].

As for `CC1(C)CC(=O)C2=C(C1)OC(N)=C(C#N)[C@@]21C(=O)N(CC(N)=O)c2ccccc21`, the EC50 in assay [1] and in assay [3] was > 300 µM (not active) throughout.

Take `Cc1cccc(NC(=O)/C(C#N)=C\c2cc(C)n(-c3ccc(C(=O)O)cc3)c2C)c1`: the EC50 is 84 µM (active) in [1] and > 300 µM (not active) in assay [3].

As for `CC(C)(C)NS(=O)(=O)c1ccc(NS(=O)(=O)Cc2ccccc2)cc1`, the EC50 in [2], in assay [4] and in assay [5] was > 150 µM (not active) each time.

For `Cc1ccc(-c2ccc(CCC(=O)O)n2-c2cccc(C(=O)O)c2)cc1`, the EC50 in assay [1] and in [3] was > 300 µM (not active) throughout.

With `COc1cc(/C=C2\SC(Nc3cccnc3)=NC2=O)cc(OC)c1OC`, the EC50 was 36.8 µM (active) in assay [2], > 150 µM (not active) in assay [4] and 68.5 µM (active) in assay [5].

As to `N#CC(C#N)=Cc1ccc(NC(=O)c2ccc(Br)cc2)cc1`, the EC50 in assay [1] and in [3] was > 300 µM (not active) throughout.

In the case of `O=C(Nc1scc(-c2ccc(Br)cc2)c1C(=O)O)c1ccccc1F`, the results for the EC50 in assay [2], in [4] and in assay [5] were 2.83 µM (active), 9.9 µM (active) and 11 µM (active), respectively.

In the case of `O=C(Nc1ccc(F)cc1)c1nc2c(nnn2Cc2cccc3ccccc23)c(=O)[nH]1`, the EC50 in assay [4] was > 150 µM (not active).

As for `C=C(C)CNC(=S)N/N=C1\CCCCc2ccccc21`, the EC50 was 62.5 µM (active) in assay [9] and 6.24 µM (active) in assay [10].

In the case of `Cc1ccc(C(C)C)cc1OCC(=O)Nc1ccccc1N1CCCC1`, the EC50 was 14.1 µM (active) in assay [4] and > 150 µM (not active) in [5].

Take `COc1ccc(C(=O)/C=C/c2ccc(N3CCCCC3)c([N+](=O)[O-])c2)c(OC)c1`: the EC50 in assay [1] and in [3] was > 300 µM (not active) throughout. Also, in assay [11], the AC50 was 4.31 µM (active).

Regarding `O=C(NNC(=O)c1cc2ccccc2cc1O)Nc1ccccc1F`, the EC50 in [9] is > 160 µM (inactive); in [10], > 38 µM (not active).

As for `O=C1NCCN1CCNS(=O)(=O)c1cc(C(F)(F)F)cc(C(F)(F)F)c1`, the EC50 in assay [9] is > 150 µM (inactive); in assay [10], > 38 µM (not active).

As to `CCOC(=O)C1Nc2ccc(OC(F)(F)F)cc2C2C=CCC12` (centres undefined), the EC50 in assay [1] and in [3] was > 300 µM (not active) throughout.

Consider `CN(/C(=N/S(=O)(=O)c1cccs1)c1ccccc1)c1ccc(O)cc1`, for which the EC50 was > 150 µM (inactive) in assay [9] and > 38 µM (not active) in assay [10].

Regarding `CC(C)(C)N=C(S)NCCc1ccccc1`, the EC50 in assay [1] is > 300 µM (inconclusive); in [3], > 300 µM (not active).

In the case of `CCCC(=O)NCCc1ccc(F)cc1`, the EC50 in assay [2], in [4] and in assay [5] was > 150 µM (not active) each time.

Consider `Cc1ccsc1/C=N/NS(=O)(=O)c1ccc([N+](=O)[O-])cc1`, for which the EC50 in [9] is > 150 µM (inactive); in assay [10] it was 1.81 µM (active).

As to `CC(C)C/C=C1\CCc2c([nH]c3ccccc23)C1=O`, the EC50 in [12] is 27.8 µM (active); in [8], 45.4 µM (active).

As a reminder, the AC50 is the concentration giving half of the maximal activity seen.
